# Test results from the supplement of paper PMC10307832.
# Columns and labels:
# Experiment in all cases: relative viability (nuclei count vs DMSO), 5 days (fraction); higher = more cells survive
# [1] = system: EMC-BAC-2
# Outline: (§1)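 Relative viability equals treated-well nuclei counts divided by vehicle-well nuclei counts. Counts came from 4× images of lung cancer cell lines grown in 1536-well plates for 5 days after pin-tool dosing on the day after seeding. Dosing used one drug alone or a fixed anchor-drug dose plus five library-drug doses (not always all listed) in √10 steps, and values are medians of duplicate plates.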
# [2] = system: EPLC-272H
# Outline: as §1
# [3] = system: HCC-78
# Outline: as §1
# [4] = system: HCC-827
# Outline: as §1
# [5] = system: LCLC-103H
# Outline: as §1
# [6] = system: LK-2
# Outline: as §1
# [7] = system: LOU-NH91
# Outline: as §1
# [8] = system: LU99A
# Outline: as §1
# [9] = system: LXF-289
# Outline: as §1
# [10] = system: NCI-H1563
# Outline: as §1
# [11] = system: NCI-H1666
# Outline: as §1
# [12] = system: NCI-H1975
# Outline: as §1
# [13] = system: NCI-H2085
# Outline: as §1
# [14] = system: NCI-H2126
# Outline: as §1
# [15] = system: NCI-H23
# Outline: as §1
# [16] = system: NCI-H2405
# Outline: as §1
# [17] = system: NCI-H3122
# Outline: as §1
# [18] = system: NCI-H322M
# Outline: as §1
# [19] = system: RERF-LC-KJ
# Outline: as §1
# [20] = system: SK-LU-1
# Outline: as §1
# [21] = system: SW 1573
# Outline: as §1
smiles,measurement,setting,value
NC(=O)Nc1cc(-c2cccc(F)c2)sc1C(=O)N[C@H]1CCCNC1 [AZD7762] + Cc1nc(NC(=O)N2CCC[C@H]2C(N)=O)sc1-c1ccnc(C(C)(C)C(F)(F)F)c1 [Alpelisib] (partner 2 µM),relative viability,[1]; first compound 0.01 µM,0.82
same,relative viability,[1]; first compound 0.03162 µM,0.72
same,relative viability,[1]; first compound 0.1 µM,0.79
same,relative viability,[1]; first compound 0.3162 µM,0.762
same,relative viability,[1]; first compound 1 µM,0.797
same,relative viability,[2]; first compound 0.01 µM,1.07
same,relative viability,[2]; first compound 0.03162 µM,1.1
same,relative viability,[2]; first compound 0.1 µM,1.13
same,relative viability,[2]; first compound 0.3162 µM,0.992
same,relative viability,[2]; first compound 1 µM,0.674
same,relative viability,[3]; first compound 0.01 µM,0.371
same,relative viability,[3]; first compound 0.03162 µM,0.419
same,relative viability,[3]; first compound 0.1 µM,0.361
same,relative viability,[3]; first compound 0.3162 µM,0.394
same,relative viability,[3]; first compound 1 µM,0.287
same,relative viability,[4]; first compound 0.01 µM,1.01
same,relative viability,[4]; first compound 0.03162 µM,1.02
same,relative viability,[4]; first compound 0.1 µM,1
same,relative viability,[4]; first compound 0.3162 µM,0.985
same,relative viability,[4]; first compound 1 µM,0.659
same,relative viability,[5]; first compound 0.01 µM,1.01
same,relative viability,[5]; first compound 0.03162 µM,0.962
same,relative viability,[5]; first compound 0.1 µM,0.889
same,relative viability,[5]; first compound 0.3162 µM,0.977
same,relative viability,[5]; first compound 1 µM,0.9
same,relative viability,[6]; first compound 0.01 µM,1.21
same,relative viability,[6]; first compound 0.03162 µM,0.946
same,relative viability,[6]; first compound 0.1 µM,0.976
same,relative viability,[6]; first compound 0.3162 µM,0.838
same,relative viability,[6]; first compound 1 µM,0.618
same,relative viability,[7]; first compound 0.01 µM,0.731
same,relative viability,[7]; first compound 0.03162 µM,0.741
same,relative viability,[7]; first compound 0.1 µM,0.645
same,relative viability,[7]; first compound 0.3162 µM,0.612
same,relative viability,[7]; first compound 1 µM,0.478
same,relative viability,[8]; first compound 0.01 µM,0.575
same,relative viability,[8]; first compound 0.03162 µM,0.568
same,relative viability,[8]; first compound 0.1 µM,0.543
same,relative viability,[8]; first compound 0.3162 µM,0.514
same,relative viability,[8]; first compound 1 µM,0.329
same,relative viability,[9]; first compound 0.01 µM,1.01
same,relative viability,[9]; first compound 0.03162 µM,1.07
same,relative viability,[9]; first compound 0.1 µM,1.12
same,relative viability,[9]; first compound 0.3162 µM,1.04
same,relative viability,[9]; first compound 1 µM,1.14
same,relative viability,[10]; first compound 0.01 µM,1.01
same,relative viability,[10]; first compound 0.03162 µM,0.918
same,relative viability,[10]; first compound 0.1 µM,0.978
same,relative viability,[10]; first compound 0.3162 µM,0.943
same,relative viability,[10]; first compound 1 µM,0.76
same,relative viability,[11]; first compound 0.01 µM,1.12
same,relative viability,[11]; first compound 0.03162 µM,1.24
same,relative viability,[11]; first compound 0.1 µM,1.18
same,relative viability,[11]; first compound 0.3162 µM,1.02
same,relative viability,[11]; first compound 1 µM,0.75
same,relative viability,[12]; first compound 0.01 µM,0.678
same,relative viability,[12]; first compound 0.03162 µM,0.585
same,relative viability,[12]; first compound 0.1 µM,0.579
same,relative viability,[12]; first compound 0.3162 µM,0.436
same,relative viability,[12]; first compound 1 µM,0.322
same,relative viability,[13]; first compound 0.01 µM,1.06
same,relative viability,[13]; first compound 0.03162 µM,0.928
same,relative viability,[13]; first compound 0.1 µM,1.1
same,relative viability,[13]; first compound 0.3162 µM,1.06
same,relative viability,[13]; first compound 1 µM,0.782
same,relative viability,[14]; first compound 0.01 µM,0.794
same,relative viability,[14]; first compound 0.03162 µM,0.775
same,relative viability,[14]; first compound 0.1 µM,0.887
same,relative viability,[14]; first compound 0.3162 µM,0.824
same,relative viability,[14]; first compound 1 µM,0.85
same,relative viability,[15]; first compound 0.01 µM,0.859
same,relative viability,[15]; first compound 0.03162 µM,0.721
same,relative viability,[15]; first compound 0.1 µM,0.745
same,relative viability,[15]; first compound 0.3162 µM,0.562
same,relative viability,[15]; first compound 1 µM,0.418
same,relative viability,[16]; first compound 0.01 µM,0.808
same,relative viability,[16]; first compound 0.03162 µM,0.79
same,relative viability,[16]; first compound 0.1 µM,0.671
same,relative viability,[16]; first compound 0.3162 µM,0.445
same,relative viability,[16]; first compound 1 µM,0.27
same,relative viability,[17]; first compound 0.01 µM,0.768
same,relative viability,[17]; first compound 0.03162 µM,0.866
same,relative viability,[17]; first compound 0.1 µM,0.737
same,relative viability,[17]; first compound 0.3162 µM,0.748
same,relative viability,[17]; first compound 1 µM,0.758
same,relative viability,[18]; first compound 0.01 µM,0.776
same,relative viability,[18]; first compound 0.03162 µM,0.906
same,relative viability,[18]; first compound 0.1 µM,0.819
same,relative viability,[18]; first compound 0.3162 µM,0.94
same,relative viability,[18]; first compound 1 µM,0.906
same,relative viability,[19]; first compound 0.01 µM,0.792
same,relative viability,[19]; first compound 0.03162 µM,0.773
same,relative viability,[19]; first compound 0.1 µM,0.787
same,relative viability,[19]; first compound 0.3162 µM,0.924
same,relative viability,[19]; first compound 1 µM,0.914
same,relative viability,[20]; first compound 0.01 µM,1.14
same,relative viability,[20]; first compound 0.03162 µM,0.72
same,relative viability,[20]; first compound 0.1 µM,0.329
same,relative viability,[20]; first compound 0.3162 µM,0.207
same,relative viability,[20]; first compound 1 µM,0.236
same,relative viability,[21]; first compound 0.01 µM,0.885
same,relative viability,[21]; first compound 0.03162 µM,0.807
same,relative viability,[21]; first compound 0.1 µM,0.926
same,relative viability,[21]; first compound 0.3162 µM,1.08
same,relative viability,[21]; first compound 1 µM,0.647
